Reference: paper PMC9898036, “VIP152 is a selective CDK9 inhibitor with pre-clinical in vitro and in vivo efficacy in chronic lymphocytic leukemia” (Leukemia, 2022)

Assays:
MRCKA = MRCKA (Homo sapiens, UniProt Q5VT25); test: KINOMEscan: MRCKA; type: binding; settings: 1000 nM, read-out: Percent Control
FLT3(N841I) = FLT3(N841I) (Homo sapiens, UniProt P36888, N841I); test: KINOMEscan: FLT3(N841I); type: binding; settings: 1000 nM, read-out: Percent Control
FLT3(ITD,D835V) = test: KINOMEscan: FLT3(ITD,D835V); type: binding, human; settings: 1000 nM
KIT = KIT (Homo sapiens, UniProt P10721); test: KINOMEscan: KIT; type: binding; settings: 1000 nM, read-out: Percent Control
SRPK1 = SRPK1 (Homo sapiens, UniProt Q96SB4); test: KINOMEscan: SRPK1; type: binding; settings: 100 nM, read-out: Percent Control
KIT(V559D,V654A) = KIT(V559D,V654A) (Homo sapiens, UniProt P10721, V559D/V654A); test: KINOMEscan: KIT(V559D,V654A); type: binding; settings: 1000 nM, read-out: Percent Control
HCK = HCK (Homo sapiens, UniProt P08631); test: KINOMEscan: HCK; type: binding; settings: 1000 nM, read-out: Percent Control
CDK5 = CDK5 (Homo sapiens, UniProt Q00535); test: KINOMEscan: CDK5; type: binding; settings: 1000 nM, read-out: Percent Control
SLK = SLK (Homo sapiens, UniProt Q9H2G2); test: KINOMEscan: SLK; type: binding; settings: 100 nM, read-out: Percent Control
ERK2 = ERK2 (Homo sapiens, UniProt P28482); test: KINOMEscan: ERK2; type: binding; settings: 1000 nM, read-out: Percent Control
CSNK1A1 = CSNK1A1 (Homo sapiens, UniProt P48729); test: KINOMEscan: CSNK1A1; type: binding; settings: 1000 nM, read-out: Percent Control
FYN = FYN (Homo sapiens, UniProt P06241); test: KINOMEscan: FYN; type: binding; settings: 1000 nM, read-out: Percent Control
BMX = BMX (Homo sapiens, UniProt P51813); test: KINOMEscan: BMX; type: binding; settings: 1000 nM, read-out: Percent Control
Adrenergic α1D = Adrenergic α1D (Homo sapiens, UniProt P25100); test: Eurofins Diversity Panel; type: binding; settings: hum, Conc. 10 μM
TIE2 = TIE2 (Homo sapiens, UniProt Q02763); test: KINOMEscan: TIE2; type: binding; settings: 100 nM, read-out: Percent Control
HG-3 cell line = test: Nuclear CDK9 co-immunoprecipitation (LC-MS/MS proteomics, western blot); type: cell-based, human
Method: HG-3 cell line was treated with 1 µM VIP152 or DMSO for 2 h; nuclei were isolated using the Nuclear Complex Co-IP Kit (Active Motif) according to the manufacturer’s protocol. Nuclear lysate was immunoprecipitated using a CDK9 antibody (ab239364 - Abcam) or isotype control (3900 S – Cell Signaling Technology) with Dynabeads™ Protein G Immunoprecipitation Kit (10007D – ThermoFisher Scientific). Beads were submitted for proteomics to the Ohio State University Proteomics Center at the Campus Chemical Instrument Center. Full proteomic methods are available in the supplementary methods section.
Having observed the transcriptomic effects of VIP152 inhibition, we hypothesized a change in the P-TEFb complex would occur validating the mechanism of this agent. Previously, Dow et al. described changes in P-TEFb nuclear complexes with flavopiridol treatment; specifically, they observed loss of nuclear speckles of P-TEFb complexes containing HEXIM1, a major component of the 7SK-RNA complex that inhibits P-TEFb. We observed an increase in the 42 kDa and 55 kDa isoforms of CDK9, as well as Cyclin T1, in the nuclear fraction following treatment (Fig. 4A, B). […] Next, a nuclear immunoprecipitation of CDK9 after a two-hour drugging in the HG-3 cell line (n = 3) was performed, followed by liquid chromatography with tandem mass spectrometry (LC-MS/MS). We detected 226 differentially co-localized proteins and again observed an enrichment in the treated fraction for P-TEFb (Fig. 4B, C). […] These findings were validated via western blot in the MEC-1 and HG-3 cell lines (Supplementary Fig. 9). […] Finally, to appreciate the effect of inhibition on the association with the inhibitory 7SK-RNA complex, we performed reciprocal nuclear co-immunoprecipitation of CDK9 and HEXIM1 (Fig. 4E and Supplementary Fig. 10). […] This decrease in 7SK association due to inhibition is consistent with other work characterizing the disruption of the 7SK complex as a result of cellular stresses.
MSGF+ search engine against a reviewed UniProt human proteome (downloaded 12/07/2020) containing the cRAP and MaxQuant contaminant FASTAs32. Search parameters included: full trypsin digest, 1 missed cleavage, carbamidomethylation of cysteine as a fixed modification and oxidation of methionine as a variable modification with precursor and fragment mass tolerances of 10 ppm and 5 Da. PSM rescoring was performed with Percolator and protein inference was performed with Epifany across all samples, setting peptide and protein false discovery rates to 0.05. […]
All data analysis was performed with R (version 3.6.2) with various packages and is included in supplemental material (zipped File_S1). […] Data was quantile normalized, and significance (p-value < 0.05) determined by a modified exact test. […]

EGFR(L747-T751del,Sins) = test: KINOMEscan: EGFR(L747-T751del,Sins); type: binding, human; settings: 1000 nM
BMPR1B = BMPR1B (Homo sapiens, UniProt O00238); test: KINOMEscan: BMPR1B; type: binding; settings: 1000 nM, read-out: Percent Control
GSK3α = GSK3α (Homo sapiens, UniProt P49840); test: NanoBRET target engagement assay (HEK293); type: cell-based
Purinergic P2Y = test: Eurofins Diversity Panel; type: binding; settings: rat, Conc. 10 μM

Sequence of BMPR1B (O00238 14-502): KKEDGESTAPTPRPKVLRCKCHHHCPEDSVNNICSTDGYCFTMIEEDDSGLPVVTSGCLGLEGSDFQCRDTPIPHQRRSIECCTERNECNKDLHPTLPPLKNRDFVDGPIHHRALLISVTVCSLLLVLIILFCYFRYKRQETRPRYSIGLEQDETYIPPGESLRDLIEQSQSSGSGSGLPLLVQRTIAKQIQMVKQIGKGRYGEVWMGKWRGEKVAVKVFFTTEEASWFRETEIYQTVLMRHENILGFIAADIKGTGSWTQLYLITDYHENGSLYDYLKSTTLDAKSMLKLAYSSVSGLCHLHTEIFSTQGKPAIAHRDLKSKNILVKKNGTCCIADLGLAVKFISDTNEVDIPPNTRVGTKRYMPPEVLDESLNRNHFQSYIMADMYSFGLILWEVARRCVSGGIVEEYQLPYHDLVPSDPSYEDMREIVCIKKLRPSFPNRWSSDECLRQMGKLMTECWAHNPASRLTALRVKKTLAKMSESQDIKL
Sequence of HCK (P08631 whole entry): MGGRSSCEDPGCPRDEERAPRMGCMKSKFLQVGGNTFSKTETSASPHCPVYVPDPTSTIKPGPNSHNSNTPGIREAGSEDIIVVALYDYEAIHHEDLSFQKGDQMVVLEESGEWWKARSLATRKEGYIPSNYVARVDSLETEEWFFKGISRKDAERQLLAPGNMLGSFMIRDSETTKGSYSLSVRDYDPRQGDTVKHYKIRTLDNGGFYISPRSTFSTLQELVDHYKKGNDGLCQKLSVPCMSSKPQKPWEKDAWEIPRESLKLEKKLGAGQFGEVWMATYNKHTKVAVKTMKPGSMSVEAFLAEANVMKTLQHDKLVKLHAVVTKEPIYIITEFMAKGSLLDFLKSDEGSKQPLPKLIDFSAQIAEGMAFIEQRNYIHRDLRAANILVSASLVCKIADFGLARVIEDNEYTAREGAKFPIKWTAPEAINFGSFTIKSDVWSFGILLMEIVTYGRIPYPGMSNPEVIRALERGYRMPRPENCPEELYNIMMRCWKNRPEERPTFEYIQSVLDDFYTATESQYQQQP
Sequence of SLK (Q9H2G2 whole entry): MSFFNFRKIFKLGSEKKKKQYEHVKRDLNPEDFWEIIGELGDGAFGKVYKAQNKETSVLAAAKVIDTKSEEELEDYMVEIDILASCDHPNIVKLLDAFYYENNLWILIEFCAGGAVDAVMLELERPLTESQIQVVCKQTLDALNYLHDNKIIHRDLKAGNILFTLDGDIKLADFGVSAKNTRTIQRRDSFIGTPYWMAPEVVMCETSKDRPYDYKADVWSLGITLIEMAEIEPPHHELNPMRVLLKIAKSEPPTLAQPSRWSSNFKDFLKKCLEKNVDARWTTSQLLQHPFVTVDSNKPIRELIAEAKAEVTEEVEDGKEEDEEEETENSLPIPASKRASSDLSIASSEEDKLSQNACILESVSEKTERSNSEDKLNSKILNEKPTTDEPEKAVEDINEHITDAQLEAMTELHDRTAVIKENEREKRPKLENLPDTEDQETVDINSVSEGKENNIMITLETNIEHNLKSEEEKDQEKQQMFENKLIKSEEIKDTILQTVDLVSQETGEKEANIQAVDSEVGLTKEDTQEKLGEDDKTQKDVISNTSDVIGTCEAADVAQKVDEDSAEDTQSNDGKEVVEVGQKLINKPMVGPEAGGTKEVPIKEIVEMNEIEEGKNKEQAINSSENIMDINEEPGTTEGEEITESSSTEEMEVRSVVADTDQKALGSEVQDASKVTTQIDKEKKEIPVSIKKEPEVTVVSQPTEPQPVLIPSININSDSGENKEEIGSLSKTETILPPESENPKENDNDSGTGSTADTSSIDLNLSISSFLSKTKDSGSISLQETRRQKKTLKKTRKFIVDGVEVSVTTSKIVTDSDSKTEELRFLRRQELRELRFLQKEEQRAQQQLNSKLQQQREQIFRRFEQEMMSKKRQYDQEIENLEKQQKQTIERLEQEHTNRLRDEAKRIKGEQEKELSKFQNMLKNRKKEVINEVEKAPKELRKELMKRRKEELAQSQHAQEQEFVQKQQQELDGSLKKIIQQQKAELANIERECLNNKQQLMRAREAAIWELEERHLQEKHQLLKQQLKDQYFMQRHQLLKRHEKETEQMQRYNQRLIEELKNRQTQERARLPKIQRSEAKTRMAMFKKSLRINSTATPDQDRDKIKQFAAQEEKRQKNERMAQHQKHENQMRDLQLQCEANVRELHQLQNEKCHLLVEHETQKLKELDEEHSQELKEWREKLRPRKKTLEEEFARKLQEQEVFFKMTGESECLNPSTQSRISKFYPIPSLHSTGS
Sequence of BMX (P51813 whole entry): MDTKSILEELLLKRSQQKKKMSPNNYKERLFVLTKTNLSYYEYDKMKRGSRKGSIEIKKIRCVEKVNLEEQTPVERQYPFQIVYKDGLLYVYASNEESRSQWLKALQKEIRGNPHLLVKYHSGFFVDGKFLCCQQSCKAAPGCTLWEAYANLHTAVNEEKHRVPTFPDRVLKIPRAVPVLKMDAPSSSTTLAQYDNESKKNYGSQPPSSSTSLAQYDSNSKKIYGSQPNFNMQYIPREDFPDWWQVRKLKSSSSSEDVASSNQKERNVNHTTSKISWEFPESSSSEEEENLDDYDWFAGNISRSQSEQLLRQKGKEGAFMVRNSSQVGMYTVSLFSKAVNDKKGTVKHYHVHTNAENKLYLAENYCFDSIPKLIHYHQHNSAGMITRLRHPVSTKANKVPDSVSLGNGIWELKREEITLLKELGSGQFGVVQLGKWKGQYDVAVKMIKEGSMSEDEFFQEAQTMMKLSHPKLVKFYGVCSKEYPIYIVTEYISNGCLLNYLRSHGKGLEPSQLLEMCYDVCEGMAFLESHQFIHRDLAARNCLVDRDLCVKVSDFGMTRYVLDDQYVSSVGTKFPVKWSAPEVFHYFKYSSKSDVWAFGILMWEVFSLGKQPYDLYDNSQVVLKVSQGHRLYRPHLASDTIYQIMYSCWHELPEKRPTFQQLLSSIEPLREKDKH
Sequence of MRCKA (Q5VT25 whole entry): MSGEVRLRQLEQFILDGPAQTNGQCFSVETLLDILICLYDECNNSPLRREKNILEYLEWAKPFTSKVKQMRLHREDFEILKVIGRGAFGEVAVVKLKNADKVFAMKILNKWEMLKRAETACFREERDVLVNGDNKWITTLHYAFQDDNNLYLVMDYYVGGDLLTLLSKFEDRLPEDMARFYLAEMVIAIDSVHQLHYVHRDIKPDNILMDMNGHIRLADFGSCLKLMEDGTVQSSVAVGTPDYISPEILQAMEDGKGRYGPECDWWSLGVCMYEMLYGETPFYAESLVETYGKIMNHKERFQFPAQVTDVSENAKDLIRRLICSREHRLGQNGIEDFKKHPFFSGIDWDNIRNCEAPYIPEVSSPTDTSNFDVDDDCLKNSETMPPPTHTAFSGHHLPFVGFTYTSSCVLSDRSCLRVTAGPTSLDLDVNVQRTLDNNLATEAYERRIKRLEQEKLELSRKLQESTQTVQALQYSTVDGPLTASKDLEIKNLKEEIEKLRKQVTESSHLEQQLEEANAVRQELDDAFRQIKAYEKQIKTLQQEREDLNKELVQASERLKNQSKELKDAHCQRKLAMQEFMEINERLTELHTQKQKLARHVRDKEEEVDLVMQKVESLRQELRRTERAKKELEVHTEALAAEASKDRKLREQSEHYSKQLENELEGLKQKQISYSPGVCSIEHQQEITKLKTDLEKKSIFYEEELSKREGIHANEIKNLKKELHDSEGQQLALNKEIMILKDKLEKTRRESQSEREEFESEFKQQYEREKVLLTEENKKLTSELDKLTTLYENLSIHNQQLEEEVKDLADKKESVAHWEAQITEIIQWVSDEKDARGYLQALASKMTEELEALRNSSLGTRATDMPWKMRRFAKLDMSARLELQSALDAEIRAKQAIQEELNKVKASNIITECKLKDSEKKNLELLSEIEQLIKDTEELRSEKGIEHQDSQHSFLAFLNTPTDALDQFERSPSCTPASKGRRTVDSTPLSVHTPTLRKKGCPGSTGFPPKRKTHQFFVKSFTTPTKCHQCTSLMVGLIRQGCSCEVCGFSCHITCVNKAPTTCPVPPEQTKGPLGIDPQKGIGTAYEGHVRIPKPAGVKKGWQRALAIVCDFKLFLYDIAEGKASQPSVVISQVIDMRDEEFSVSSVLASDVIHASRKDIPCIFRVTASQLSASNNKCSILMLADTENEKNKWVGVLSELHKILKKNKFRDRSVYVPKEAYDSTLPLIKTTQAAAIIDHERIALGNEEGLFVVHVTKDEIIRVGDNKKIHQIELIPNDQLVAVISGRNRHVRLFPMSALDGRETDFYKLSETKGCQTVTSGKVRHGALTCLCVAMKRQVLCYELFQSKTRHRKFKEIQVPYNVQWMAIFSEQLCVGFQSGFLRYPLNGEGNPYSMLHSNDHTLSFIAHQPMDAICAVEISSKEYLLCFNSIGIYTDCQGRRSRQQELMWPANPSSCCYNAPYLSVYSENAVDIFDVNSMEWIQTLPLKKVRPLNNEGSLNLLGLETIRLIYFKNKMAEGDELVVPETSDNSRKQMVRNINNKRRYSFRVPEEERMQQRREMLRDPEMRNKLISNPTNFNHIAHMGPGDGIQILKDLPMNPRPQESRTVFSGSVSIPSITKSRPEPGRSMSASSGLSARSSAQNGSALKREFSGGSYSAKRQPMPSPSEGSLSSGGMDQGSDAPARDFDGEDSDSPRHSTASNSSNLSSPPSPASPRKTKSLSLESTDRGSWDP
Sequence of CDK5 (Q00535 whole entry): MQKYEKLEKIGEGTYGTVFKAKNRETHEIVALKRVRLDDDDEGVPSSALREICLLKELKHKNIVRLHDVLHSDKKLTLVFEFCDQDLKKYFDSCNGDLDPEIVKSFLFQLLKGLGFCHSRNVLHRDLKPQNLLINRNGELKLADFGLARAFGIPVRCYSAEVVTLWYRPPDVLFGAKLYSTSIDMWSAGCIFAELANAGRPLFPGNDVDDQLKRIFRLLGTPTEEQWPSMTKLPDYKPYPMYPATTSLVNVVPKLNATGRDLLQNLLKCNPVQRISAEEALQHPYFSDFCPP

**Q.** `COc1cc(F)ccc1-c1cc(Nc2cc(CS(C)(=N)=O)ccn2)ncc1F` (centres unmarked) [VIP152] was tested. Which remaining binding at 1 µM (MRCKA) did it give?
**A.** Its remaining binding at 1 µM is 82%.

**Q.** What about the remaining binding at 1 µM (FLT3(N841I)) of the same molecule?
**A.** The remaining binding at 1 µM was 54%.

**Q.** What about the “Percent Control” value (FLT3(ITD,D835V)) of the same molecule?
**A.** The value was 60%.

**Q.** And the remaining binding at 1 µM (KIT)?
**A.** Its remaining binding at 1 µM is 83%.

**Q.** What about the remaining binding at 0.1 µM (SRPK1) of the same molecule?
**A.** The remaining binding at 0.1 µM was 100%.

**Q.** And the remaining binding at 1 µM (KIT(V559D,V654A))?
**A.** The remaining binding at 1 µM was 100%.

**Q.** What about the remaining binding at 1 µM (HCK) of the same molecule?
**A.** Its remaining binding at 1 µM is 82%.

**Q.** What about the remaining binding at 1 µM (CDK5) of the same molecule?
**A.** The remaining binding at 1 µM was 83%.

**Q.** And the remaining binding at 0.1 µM (SLK)?
**A.** Its remaining binding at 0.1 µM is 91%.

**Q.** And the remaining binding at 1 µM (ERK2)?
**A.** The remaining binding at 1 µM was 99%.

**Q.** What about the remaining binding at 1 µM (CSNK1A1) of the same molecule?
**A.** The remaining binding at 1 µM was 95%.

**Q.** And the remaining binding at 1 µM (FYN)?
**A.** The remaining binding at 1 µM was 91%.

**Q.** What about the remaining binding at 1 µM (BMX) of the same molecule?
**A.** The remaining binding at 1 µM was 3.8%.

**Q.** And the inhibition at 10 µM (Adrenergic α1D)?
**A.** Its inhibition at 10 µM is 19%.

**Q.** And the remaining binding at 0.1 µM (TIE2)?
**A.** Its remaining binding at 0.1 µM is 100%.

**Q.** And the “association with transcription-associated machinery (SPT6H and IWS1) and RPB3” value (HG-3 cell line; 1 µM, 2 h, nuclear IP of CDK9)?
**A.** Its value is “decreased association”.

**Q.** What about the differentially co-localized proteins (HG-3 cell line; 1 µM, 2 h, nuclear IP of CDK9, LC-MS/MS) of the same molecule?
**A.** Its differentially co-localized proteins is 226.

**Q.** What about the “association with DDX21, Fold Change” value (HG-3 cell line; 1 µM, 2 h, nuclear IP of CDK9, proteomics) of the same molecule?
**A.** Its value is 1.47.

**Q.** And the “association of CDK9 with 7SK-RNA complex components (HEXIM1, MEPCE, LARP7)” value (HG-3 cell line; HG-3 and MEC-1, reciprocal nuclear co-immunoprecipitation of CDK9 and HEXIM1)?
**A.** Its value is “decreased association”.

**Q.** And the “Percent Control” value (EGFR(L747-T751del,Sins))?
**A.** Its value is 97%.

**Q.** What about the remaining binding at 1 µM (BMPR1B) of the same molecule?
**A.** The remaining binding at 1 µM was 46%.

**Q.** What about the “inhibitory capacity against GSK3α” value (GSK3α) of the same molecule?
**A.** Its value is “Inhibits”.

**Q.** And the “% Inh.” value (Purinergic P2Y)?
**A.** The value was 8%.
